Assays:
[1] = system: Class III Pulmonary Hypertension; assay: Oral cicletanine 50 mg daily in Class III pulmonary hypertension (associated with left-sided heart failure); format: in vivo, human
Method: Yet another embodiment comprises the use of 50 mg oral daily doses of racemic cicletanine for treatment of Class III Pulmonary Hypertension, resulting in improved NYHA functional status.

[2] = system: WHO class II pulmonary hypertension patients; assay: Oral cicletanine 50 mg daily in WHO class II pulmonary hypertension patients; format: in vivo, human
Method: When dosed orally once daily at 50 mg daily, improvements in functional status as measured by improved 12 minute walking distance were observed.
Another embodiment comprises the use of 50 mg oral daily doses of racemic cicletanine for treatment of Class II Pulmonary Hypertension, resulting in improved walking distance values.

[3] = system: patient with idiopathic pulmonary arterial hypertension; assay: Human case (Example 1): oral once daily cicletanine in a patient with idiopathic pulmonary arterial hypertension (Class I); format: in vivo; conditions: for 6-minute walking distance: less than 30 meters immediately prior to initiation; for levels of N-terminal pro-B-type natriuretic peptide: 4409 immediately prior to therapy
Method: A successful clinical trial of one of the embodiments comprised use of racemic cicletanine with the dosage initiated at 50 mg daily and titrated as tolerated to 150 mg daily in a patient with Class I Pulmonary Hypertension.
A patient with idiopathic pulmonary arterial hypertension, despite having been for some time on high doses of all three classes of approved pulmonary hypertension drugs (endothelin receptor antagonist, prostacyclin, and PDE5 inhibitor), was in heart failure and deteriorating rapidly. The patient had finally been stabilized in the intensive care unit with continuously inhaled nitric oxide. Cicletanine therapy was inititiated—oral once daily, titrating from 50 mg to 150 mg/day over three days—day 1 at 50 mg, day 2 at 100 mg, day 3 and thereafter at 150 mg. Within three days from initiation of cicletanine therapy, the patient was weaned off nitric oxide and released from the intensive care unit; they were home within 5 days of initiation of cicletanine treatment. The patient has been on the cicletanine therapy for four and a half months.
The patient has manifested a significant improvement in 6-minute walking distance, which was less than 30 meters immediately prior to cicletanine initiation, and was over 200 meters after one month of cicletanine therapy and was over 400 meters from the second month of cicletanine therapy onward.
Immediately prior to cicletanine therapy the marker was at 4409; within a few days of cicletanine therapy biomarker levels had fallen to less than 2000, and have stayed near 2000 for approximately four months.
The patient, formerly bedridden, is now able to perform housework and take regular exercise.

[4] = system: nitric oxide in vascular tissue; assay: Nitric oxide levels in vascular tissue
[5] = Tolerance and systemic blood pressure effects of cicletanine in patients; format: in vivo, human
Method: We have unexpectedly found good tolerance of Cicletanine in some patient populations at doses up to 400 mg. […] This is particularly effective by use of means to reduce or modulate the magnitude of the kaliuretic, natriuretic and diuretic effects of Cicletanine. As part of aspects of the present invention, and as described below, we have also invented several means of accomplishing this objective.
In accordance of the other embodiments of the present invention, an oral therapeutic formulation is disclosed wherein sufficient cicletanine is contained to improve pulmonary hemodynamics without excessive lowering of systemic blood pressure. Excessive reduction of systemic blood pressure has been a limiting side effect in many agents potentially useful for treatment of pulmonary hypertension. […] Use of appropriate delivery or other mechanisms to optimize blood levels of individual isomers will allow even higher dosing without adverse impacts on systemic blood pressures.
In accordance with some embodiments of the present invention, an oral formulation is disclosed, comprising a therapeutically effective amount of cicletanine alone or in combination with a second agent such that the overall formulation improves pulmonary hemodynamics without inappropriately lowering systemic blood pressure. […]

[6] = system: human subject with heart failure; assay: Oral cicletanine 150 mg daily in a human subject with heart failure; format: in vivo; conditions: oral 150 mg daily
Method: Natriuretic peptide level, a marker of heart failure is improved by oral administration of 150 mg of Cicletanine daily to a human subject with heart failure.

[7] = 50 mg daily titrated to 150 mg daily, patient with Class I Pulmonary Hypertension

Q: With `Cc1ncc2c(c1O)COC2c1ccc(Cl)cc1` (racemic) [racemic cicletanine] as the compound, how does the NYHA functional status ([1]; 50 mg oral daily doses, Class III Pulmonary Hypertension) read?
A: improved

Q: What about the walking distance values ([2]; 50 mg oral daily doses, Class II Pulmonary Hypertension) of the same compound?
A: improved

Q: And the “increase in walking distance” value [3, 7]?
A: more than 12 fold

Q: And the “natriuretic peptide serum levels” value [3, 7]?
A: substantial reductions

Q: With `Cc1ncc2c(c1O)COC2c1ccc(Cl)cc1` (single isomer, unassigned; (-)) [(−) cicletanine] as the compound, how does the “nitric oxide enhancing effect, (−) versus (+) cicletanine” value ([4]; compared with (+) cicletanine) read?
A: more prominent

Q: For `Cc1ncc2c(c1O)COC2c1ccc(Cl)cc1` (racemic) [cicletanine], which systemic blood pressure ([5]; human, in vivo) is on record?
A: tends not to lower

Q: What about the “doses with good tolerance” value ([5]; some patient populations) of the same compound?
A: up to 400 mg

Q: What about the “tachyphylaxis to its own nitric oxide effects” value [4] of the same compound?
A: avoids tachyphylaxis

Q: What about the “levels of nitric oxide in vascular tissue” value ([4]; persistent across concentrations corresponding to human doses from 1 mg daily to several thousand milligrams daily) of the same compound?
A: increased levels

Q: What about the “hemodynamic and clinical change from baseline” value ([1]; pulmonary hypertension associated with left-sided heart failure) of the same compound?
A: favorable, long-term hemodynamic and clinical improvements

Q: What about the “12 minute walking distance (functional status)” value ([2]; oral once daily 50 mg, WHO class II patients) of the same compound?
A: improved

Q: And the “Natriuretic peptide level (marker of heart failure)” value [6]?
A: improved

Q: And the 6-minute walking distance ([3]; after one month of cicletanine therapy (150 mg/day oral))?
A: over 200 meters

Q: And the “levels of N-terminal pro-B-type natriuretic peptide” value ([3]; for approximately four months of therapy)?
A: ~2000

Q: What about the quality of life ([3]; formerly bedridden, now able to perform housework and take regular exercise) of the same compound?
A: improved significantly

Q: What about the 6-minute walking distance ([3]; from the second month of cicletanine therapy onward) of the same compound?
A: over 400 meters

Q: And the “time from initiation of treatment until home” value ([3]; titrating from 50 mg to 150 mg/day)?
A: ≤ 5 days

Q: What about the “time from initiation of therapy until weaned off nitric oxide and released from the intensive care unit” value ([3]; titrating from 50 mg to 150 mg/day over three days) of the same compound?
A: three

Q: What about the “levels of N-terminal pro-B-type natriuretic peptide” value ([3]; within a few days of cicletanine therapy) of the same compound?
A: less than 2000

From patent US20080312241A1, “Cicletanine and PKC inhibitors in the treatment of pulmonary and cardiac disorders” (Gilead Sciences, Inc., priority 2007, published 2008)
